Measured values taken from publication PMC4076284, “A Characteristic Back Support Structure in the Bisphenol A-Binding Pocket in the Human Nuclear Receptor ERRγ” (PLoS ONE, 2014).

Legend:
[1] = molecular target: T1, Lys430Ala-ERRγ mutant receptor (GST-fused LBD) (Homo sapiens, UniProt P62508, K430A); conditions: heterogeneous binding assay using [^3H]BPA
Protocol: (§1) Wild-type and mutant ERRγ-LBD proteins were expressed as glutathione S-transferase (GST)-fused preparations in E. coli BL21 as described previously [1], [24], [25]. […] After loading the protein solution, the column was incubated for 1 h at 4°C, and then washed three times with PBS containing 0.5% (v/v) Triton X-100 and once with sonication buffer (50 mM Tris-HCl (pH 8.0), 50 mM NaCl, 1 mM EDTA, and 1 mM dithiothreitol). […] The protein concentrations were determined by the Bradford method [26].
(§2) Competitive binding assays were performed in the presence of GST-fused wild-type ERRγ-LBD or its mutants at the most appropriate concentration of each receptor. […] Radioactivity was determined on a liquid scintillation counter TopCount NXT (PerkinElmer Life Sciences Japan Co., Ltd., Tokyo, Japan). To estimate the binding affinity, the IC50 values (the concentrations for the half-maximal inhibition) were calculated from the dose-response curves evaluated by the nonlinear analysis program ALLFIT [30]. Each assay was performed at least three times.

[2] = molecular target: T2, His434Phe-ERRγ mutant receptor (GST-fused LBD) (Homo sapiens, UniProt P62508, H434F); conditions: heterogeneous competitive binding
Protocol: as §1, §2

[3] = molecular target: T3, Tyr330Ala-ERRγ mutant receptor (GST-fused LBD) (Homo sapiens, UniProt P62508, Y330A); experiment: Competitive binding assay using [^3H]BPA
T3 construct: wild-type ERRγ-LBD encoding 222-458 residues was generated by PCR; made in house; host or cells: E. coli BL21
Protocol: as §1, §2

[4] = molecular target: T4, Ile310Ala-ERRγ mutant receptor (GST-fused LBD) (Homo sapiens, UniProt P62508, I310A); conditions: BPA value re-collected from the previous report, read-out: Receptor binding potency IC50; cited from earlier work
T4 construct: wild-type ERRγ-LBD encoding 222-458 residues was generated by PCR; made in house; host or cells: E. coli BL21

[5] = molecular target: Ile349Ala-ERRγ mutant receptor (GST-fused LBD) (Homo sapiens, UniProt P62508, I349A); experiment: biochemical
Protocol: as §2

[6] = molecular target: GST-fused wild-type ERRγ-LBD (Homo sapiens, UniProt P62508); experiment: biochemical; conditions: [^3H]BPA 5 nM, 4°C, 2 h
Protocol: as §1, §2

[7] = molecular target: Leu345Ala-ERRγ mutant receptor (GST-fused LBD) (Homo sapiens, UniProt P62508, L345A); experiment: biochemical
Protocol: as §1, §2

[8] = molecular target: T2, His434Phe-ERRγ mutant receptor (GST-fused LBD); experiment: biochemical
Protocol: as §1, §2

[9] = molecular target: Leu342Ile-ERRγ mutant receptor (GST-fused LBD) (Homo sapiens, UniProt P62508, L342I); experiment: biochemical
Protocol: as §1, §2

[10] = molecular target: T5, Asn346Tyr-ERRγ mutant receptor (GST-fused LBD) (Homo sapiens, UniProt P62508, N346Y); experiment: Competitive binding assay using [^3H]BPA
T5 construct: wild-type ERRγ-LBD encoding 222-458 residues; made in house; host or cells: E. coli BL21
Protocol: as §1, §2

[11] = molecular target: T6, Leu345Ile-ERRγ mutant receptor (GST-fused LBD) (Homo sapiens, UniProt P62508, L345I); experiment: Competitive binding assay using [^3H]BPA
T6 construct: wild-type ERRγ-LBD encoding 222-458 residues; made in house; host or cells: E. coli BL21
Protocol: as §1, §2

[12] = molecular target: Leu342Val-ERRγ mutant receptor (GST-fused LBD) (Homo sapiens, UniProt P62508, L342V); experiment: biochemical
Protocol: as §1, §2

[13] = molecular target: Ile349Leu-ERRγ mutant receptor (GST-fused LBD) (Homo sapiens, UniProt P62508, I349L); experiment: biochemical
Protocol: as §2

[14] = molecular target: Ile349Val-ERRγ mutant receptor (GST-fused LBD) (Homo sapiens, UniProt P62508, I349V); experiment: biochemical
Protocol: as §2

[15] = molecular target: T1, Lys430Ala-ERRγ mutant receptor (GST-fused LBD); experiment: biochemical
Protocol: as §1, §2

[16] = molecular target: Asn346Ala-ERRγ mutant receptor (GST-fused LBD) (Homo sapiens, UniProt P62508, N346A); experiment: biochemical
Protocol: as §1, §2

ERRγ mutant receptors = experiment: [^3H]BPA saturation and/or competitive binding: ranges stated over several ERRγ mutants or both assays; set-up: species or system human; conditions: for Activity decrements vs wild-type: competitive binding (Table 2)
Protocol: The reaction mixture was incubated at 4°C for 2 h with the receptor proteins—GST-fused wild-type ERRγ-LBD or its mutants—in 100 µl of binding buffer [10 mM HEPES (pH 7.5), 50 mM NaCl, 2 mM MgCl2, 1 mM EDTA, 2 mM CHAPS, and 2 mg/ml γ-globulin]. The assay was performed with or without the addition of unlabelled BPA (final concentration of 1.0×10^-5 M) to quantify the specific and nonspecific binding. After incubation with 100 µl of 1% dextran-coated charcoal (DCC) (Sigma-Aldrich) in PBS (pH 7.4) for 10 min at 4°C, the DCC-absorbed free radio-ligand was removed by the direct vacuum filtration method using a 96-well filtration plate (MultiScreen^HTS HV, 0.45 µm pore size; Millipore, Billerica, MA, USA) for the bound/free separation. Radioactivity was determined on a liquid scintillation counter (LS6500; Beckman Coulter, Fullerton, CA, USA).
The saturation binding assay was performed at least three times.
Each assay was performed at least three times.

[17] = molecular target: T7, Val313Ala-ERRγ mutant receptor (GST-fused LBD) (Homo sapiens, UniProt P62508, V313A); experiment: Competitive binding assay using [^3H]BPA; conditions: competitive binding (Table 3, BPA value from ref 24)
T7 construct: wild-type ERRγ-LBD encoding 222-458 residues was generated by PCR; made in house; host or cells: E. coli BL21
Protocol: as §1, §2

[18] = molecular target: T8, Tyr330Phe-ERRγ mutant receptor (GST-fused LBD) (Homo sapiens, UniProt P62508, Y330F); experiment: Competitive binding assay using [^3H]BPA
T8 construct: wild-type ERRγ-LBD encoding 222-458 residues was generated by PCR; made in house; host or cells: E. coli BL21
Protocol: as §1, §2

[19] = molecular target: Asn346Gln-ERRγ mutant receptor (GST-fused LBD) (Homo sapiens, UniProt P62508, N346Q); experiment: biochemical
Protocol: as §1, §2

[20] = molecular target: T9, Asn346Gly-ERRγ mutant receptor (GST-fused LBD) (Homo sapiens, UniProt P62508, N346G); experiment: Competitive binding assay using [^3H]BPA
T9 construct: wild-type ERRγ-LBD encoding 222-458 residues; made in house; host or cells: E. coli BL21
Protocol: as §1, §2

[21] = molecular target: T7, Val313Ala-ERRγ mutant receptor (GST-fused LBD); conditions: BPA value re-collected from the previous report, read-out: Receptor binding potency IC50; cited from earlier work
[22] = molecular target: Leu345Val-ERRγ mutant receptor (GST-fused LBD) (Homo sapiens, UniProt P62508, L345V); experiment: biochemical
Protocol: as §1, §2

[23] = molecular target: T10, Val313Leu-ERRγ mutant receptor (GST-fused LBD) (Homo sapiens, UniProt P62508, V313L); conditions: BPA value re-collected from the previous report, read-out: Receptor binding potency IC50; cited from earlier work
T10 construct: wild-type ERRγ-LBD encoding 222-458 residues was generated by PCR; made in house; host or cells: E. coli BL21

[24] = read-out: Receptor binding potency IC50

T5 sequence (P62508 222-458 N346Y): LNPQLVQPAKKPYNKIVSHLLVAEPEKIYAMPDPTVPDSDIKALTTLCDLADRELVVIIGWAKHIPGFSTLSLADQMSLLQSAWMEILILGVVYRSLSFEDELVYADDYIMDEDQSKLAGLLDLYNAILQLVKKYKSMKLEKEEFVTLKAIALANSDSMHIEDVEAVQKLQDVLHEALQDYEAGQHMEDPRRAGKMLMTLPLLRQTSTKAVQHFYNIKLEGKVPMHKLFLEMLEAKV
T8 sequence (P62508 222-458 Y330F): as the sequence (P62508 222-458 N346Y) above, with Y109F, Y125N counted along it
T2 sequence (P62508 222-458 H434F): as the sequence (P62508 222-458 N346Y) above, with Y125N, H213F counted along it
Sequence of GST-fused wild-type ERRγ-LBD (P62508 222-458): as the sequence (P62508 222-458 N346Y) above, with Y125N counted along it
T7 sequence (P62508 222-458 V313A): as the sequence (P62508 222-458 N346Y) above, with V92A, Y125N counted along it
T6 sequence (P62508 222-458 L345I limits assumed): as the sequence (P62508 222-458 N346Y) above, with L124I, Y125N counted along it
T3 sequence (P62508 222-458 Y330A): as the sequence (P62508 222-458 N346Y) above, with Y109A, Y125N counted along it
T9 sequence (P62508 222-458 N346G): as the sequence (P62508 222-458 N346Y) above, with Y125G counted along it
T1 sequence (P62508 222-458 K430A): as the sequence (P62508 222-458 N346Y) above, with Y125N, K209A counted along it
Sequence of Asn346Ala-ERRγ mutant receptor (GST-fused LBD) (P62508 222-458 N346A): as the sequence (P62508 222-458 N346Y) above, with Y125A counted along it
T10 sequence (P62508 222-458 V313L limits assumed): as the sequence (P62508 222-458 N346Y) above, with V92L, Y125N counted along it
Sequence of Leu342Ile-ERRγ mutant receptor (GST-fused LBD) (P62508 222-458 L342I limits assumed): as the sequence (P62508 222-458 N346Y) above, with L121I, Y125N counted along it
Sequence of Leu342Val-ERRγ mutant receptor (GST-fused LBD) (P62508 222-458 L342V limits assumed): as the sequence (P62508 222-458 N346Y) above, with L121V, Y125N counted along it
Sequence of Leu345Ala-ERRγ mutant receptor (GST-fused LBD) (P62508 222-458 L345A limits assumed): as the sequence (P62508 222-458 N346Y) above, with L124A, Y125N counted along it
Sequence of Ile349Ala-ERRγ mutant receptor (GST-fused LBD) (P62508 222-458 I349A limits assumed): as the sequence (P62508 222-458 N346Y) above, with Y125N, I128A counted along it
Sequence of Ile349Leu-ERRγ mutant receptor (GST-fused LBD) (P62508 222-458 I349L): as the sequence (P62508 222-458 N346Y) above, with Y125N, I128L counted along it
Sequence of Asn346Gln-ERRγ mutant receptor (GST-fused LBD) (P62508 222-458 N346Q): as the sequence (P62508 222-458 N346Y) above, with Y125Q counted along it
Sequence of Leu345Val-ERRγ mutant receptor (GST-fused LBD) (P62508 222-458 L345V limits assumed): as the sequence (P62508 222-458 N346Y) above, with L124V, Y125N counted along it
Sequence of Ile349Val-ERRγ mutant receptor (GST-fused LBD) (P62508 222-458 I349V limits assumed): as the sequence (P62508 222-458 N346Y) above, with Y125N, I128V counted along it
T4 sequence (P62508 222-458 I310A limits assumed): as the sequence (P62508 222-458 N346Y) above, with I89A, Y125N counted along it

CC/C(=C(\c1ccc(O)cc1)c1ccc(OCCN(C)C)cc1)c1ccccc1 [4-OHT, 4-hydroxytamoxifen]
Reinforced binding potency vs wild-type [1]: about 40% | Reduction in receptor-binding potency vs wild-type [2]: more than 40 fold

CC(C)(c1ccc(O)cc1)c1ccc(O)cc1 [BPA, bisphenol A]
Reduction in IC50 value vs wild-type ([3]; Tyr330Ala mutant, homologous competitive binding): more than 60 fold | IC50 [3, 24]: 361 ± 39.3 nM | IC50 [4]: 21.9 ± 0.99 nM | IC50 [5]: 20.1 ± 3.24 nM | IC50 ([6]; Receptor binding potency IC50, wild-type ERRγ (Table 2)): 4.96 ± 0.71 nM | IC50 ([6]; Receptor binding potency IC50, wild-type ERRγ (Table 3, back support series)): 5.64 ± 0.17 nM | IC50 [7]: 60.6 ± 11.2 nM | IC50 [8]: 13.7 ± 0.66 nM | IC50 [9]: 24.5 ± 4.53 nM | Reduction in binding affinity vs wild-type ([10]; Asn346Tyr mutant, competitive binding): approximately 9 fold | IC50 [10, 24]: 45.2 ± 8.91 nM | Decrease in binding vs wild-type ([11]; Leu345Ile mutant, homologous competitive binding): approximately 30 fold | IC50 [11, 24]: 158 ± 19.8 nM | IC50 [12]: 34.7 ± 5.38 nM | IC50 [13]: 10.4 ± 0.64 nM | IC50 [14]: 11.7 ± 1.5 nM | IC50 [15]: 9.7 ± 0.37 nM | IC50 [16]: 20.1 ± 3.41 nM | Reduced binding affinity vs wild-type (ERRγ mutant receptors; Asn346Ala mutant, saturation and competitive binding (Tables 1 and 2)): 2–4 times | Reduction in the affinity vs wild-type (ERRγ mutant receptors; Asn346Gln mutant, saturation and competitive binding (Tables 1 and 2)): 3-10 fold | Activity decrements vs wild-type (ERRγ mutant receptors; Asn346 mutant receptors (Ala, Gly, Gln, Tyr)): 4.0–11.3 times | Reduction in affinity vs wild-type (ERRγ mutant receptors; Ile349Ala mutant, saturation and competitive binding (Tables 1 and 2)): 3-4 fold | Activity decrements vs wild-type (ERRγ mutant receptors; Ile349Val and Ile349Leu mutants): 110-135% | Reduction in IC50 value vs wild-type (ERRγ mutant receptors; Leu342Val and Leu342Ile mutants, homologous competitive binding (Table 2)): 5–7 fold | Reduction in the binding affinity vs wild-type (ERRγ mutant receptors; Leu342Val and Leu342Ile mutants, saturation binding (Table 1)): 3–4 fold | Reduction in binding affinities vs wild-type [17]: approximately 5 fold | Reduction in IC50 value vs wild-type ([18]; Tyr330Phe mutant, homologous competitive binding): approximately 3 fold | IC50 [18, 24]: 16.1 ± 0.58 nM | IC50 [19]: 56.1 ± 7.42 nM | Binding affinity relative to the wild-type ERRγ (IC50) ([20]; Asn346Gly mutant, homologous competitive binding): ca. 12% | IC50 [20, 24]: 42.4 ± 5.44 nM | IC50 [21]: 26.8 ± 2.12 nM | IC50 [22]: 154 ± 17.5 nM | IC50 [23]: 16 ± 1.41 nM
